# Earlier results in patent US20240316119A1, “COMPOSITIONS AND METHODS FOR SUPPRESSING PATHOGENIC ORGANISMS” (VEDANTA BIOSCIENCES, INC., priority 2021, published 2024).
# System: Klebsiella pneumoniae and Citrobacter rodentium
# Conditions: reported in Stacy et al. Cell. 2021 184(3):615-627
structure (smiles),measurement,value
"NCCS(=O)(=O)O [taurine, 2-aminoethanesulfonic acid]",effect of supplying exogenous taurine alone on microbiota function and resistance to infection,sufficient to induce this alteration in microbiota function and enhance resistance
